From patent US20240173334A1, “Oral (17-ß)-3-Oxoandrost-4-EN-17-YL Tridecanoate Therapy” (Lipocine Inc., priority 2018, published 2024) come the findings set out here.

SMILES strings stand for the structures.

Series [1] in a line: multiple-dose steady-state PK of dosage form B7 in hypogonadal males (Example 5). It is filed as in vivo, human (hypogonadal males). On the procedure: A multi-center, open-label, randomized, 4-treatment arm, multiple-dose study was performed to evaluate the safety, tolerability, and the steady-state PK parameters of the oral composition comprising substantially noncrystalline form of (17-ß)-3-oxoandrost-4-en-17-yl tridecanoate (dosage form B7) in hypogonadal males (N=48). The treatments were following as: • Treatment A: 500 mg of (17-ß)-3-oxoandrost-4-en-17-yl tridecanoate as androst-4-en-17β-ol-3-one ester in dosage form B7 in QD. • Treatment B: 750 mg of (17-ß)-3-oxoandrost-4-en-17-yl tridecanoate as androst-4-en-17β-ol-3-one ester in dosage form B7 in QD. • Treatment C: 1000 mg of (17-ß)-3-oxoandrost-4-en-17-yl tridecanoate as androst-4-en-17β-ol-3-one ester in dosage form B7 in QD. • Treatment D: 1250 mg of (17-ß)-3-oxoandrost-4-en-17-yl tridecanoate as androst-4-en-17β-ol-3-one ester in dosage form B7 in QD.
(§1) The steady state PK parameters were obtained post the treatment initiation.
The evaluation of the relation between Cavg or Cmax and dose amount of (17-ß)-3-oxoandrost-4-en-17-yl tridecanoate was performed using the group mean values of Cavg and Cmax of androst-4-en-17β-ol-3-one obtained at the steady state.

Series [2] can be described thus: ascending multiple-dose steady-state PK of undecanoate in dosage form B1 in hypogonadal males (Example 6). It is filed as in vivo, human (adult hypogonadal male subjects). On the procedure:
A single-center, randomized, double-blind, placebo-controlled, ascending multiple-dose, serial-group study was conducted to evaluate the safety, tolerability, and the steady-state PK parameters of an oral composition comprising substantially noncrystalline form of (17-ß)-3-oxoandrost-4-en-17-yl undecanoate in adult hypogonadal male subjects (N=84). The treatments were following as: • Treatment A: 75 mg of (17-ß)-3-oxoandrost-4-en-17-yl undecanoate as androst-4-en-17β-ol-3-one ester based on dosage form B1 in BID. • Treatment B: 150 mg of (17-ß)-3-oxoandrost-4-en-17-yl undecanoate as androst-4-en-17β-ol-3-one ester based on dosage form B1 in BID. • Treatment C: 225 mg of (17-ß)-3-oxoandrost-4-en-17-yl undecanoate as androst-4-en-17β-ol-3-one ester based on dosage form B1 in BID. • Treatment D: 300 mg of (17-ß)-3-oxoandrost-4-en-17-yl undecanoate as androst-4-en-17β-ol-3-one ester based on dosage form B1 in BID. • Treatment E: placebo capsules in BID
as §1

Setting [3] is: 500 mg QD, dosage form B7, N=12.
Where [4] appears, read: 750 mg QD, dosage form B7, N=11.
The mark [5] stands for this setting: 1000 mg QD, dosage form B7, N=12.
Setting [6] is: 1250 mg QD, dosage form B7, N=12.
Setting [7] is: 75 mg BID, dosage form B1, N=16.
The mark [8] stands for this setting: 150 mg BID, dosage form B1, N=16.
[9] abbreviates: 225 mg BID, dosage form B1, N=16.
Where [10] appears, read: 300 mg BID, dosage form B1, N=9.

Consider `CCCCCCCCCCCCC(=O)O[C@H]1CC[C@H]2[C@@H]3CCC4=CC(=O)CC[C@]4(C)[C@H]3CC[C@]12C` [[(8R,9S,10R,13S,14S,17S)-10,13-dimethyl-3-oxo-1,2,6,7,8,9,11,12,14,15,16,17-dodecahydrocyclopenta[a]phenanthren-17-yl] tridecanoate], for which the “Cavg of androst-4-en-17β-ol-3-one, mean (±SD)” value in series [1] (setting [3]) is on record as 307 (157) ng/dL; in series [1] (setting [4]), 352 (41) ng/dL; in series [1] (setting [5]) it was 405 (148) ng/dL; in series [1] (setting [6]), 465 (201) ng/dL. The “Cmax of androst-4-en-17β-ol-3-one, mean (±SD)” value is listed as 608 (318) ng/dL in series [1] (setting [3]), 822 (254) ng/dL in series [1] (setting [4]), 930 (326) ng/dL in series [1] (setting [5]) and 1233 (695) ng/dL in series [1] (setting [6]).

For `CCCCCCCCCCC(=O)O[C@H]1CC[C@H]2[C@@H]3CCC4=CC(=O)CC[C@]4(C)[C@H]3CC[C@]12C` [(17-ß)-3-oxoandrost-4-en-17-yl undecanoate], the “Cavg of androst-4-en-17β-ol-3-one, mean (±SD)” value in series [2] (setting [7]) is recorded as 270 (94) ng/dL; in series [2] (setting [8]), 319 (77) ng/dL; in series [2] (setting [9]), 446 (161) ng/dL; in series [2] (setting [10]), 582 (184) ng/dL. In addition, the “Cmax of androst-4-en-17β-ol-3-one, mean (±SD)” value in series [2] (setting [7]) is given as 544 (169) ng/dL; in series [2] (setting [8]), 792 (276) ng/dL; in series [2] (setting [9]), 1169 (356) ng/dL; in series [2] (setting [10]), 1644 (644) ng/dL.
